In article PMC10643210, “Expanding structural diversity of 5′-aminouridine moiety of sansanmycin via mutational biosynthesis” (Frontiers in Bioengineering and Biotechnology, 2023):
≈ marks a conversion by molar mass, not a printed value.

Legend:
[1] = tested on: M. tuberculosis M6600; details: clinical multidrug-resistant isolate; for MIC M. tuberculosis M6600: Alamar blue, 7H9 broth, triplicate wells
[2] = tested on: M. tuberculosis M3551; details: clinical multidrug-resistant isolate; for MIC M. tuberculosis M3551: Alamar blue, 7H9 broth, triplicate wells
[3] = tested on: M. tuberculosis M9483; details: clinical multidrug-resistant isolate; for MIC M. tuberculosis M9483: Alamar blue, 7H9 broth, triplicate wells

Row | Structure (SMILES) | M. tuberculosis M6600, resistant/sensitive class of control drugs [1] | M. tuberculosis M3551, resistant/sensitive class of control drugs [2] | M. tuberculosis M9483, resistant/sensitive class of control drugs [3] | MIC M. tuberculosis M6600 [1] | MIC M. tuberculosis M3551 [2] | MIC M. tuberculosis M9483 [3]
1 | NNC(=O)c1ccncc1 [INH, isoniazid] | R | R | R | – | – | –
2 | CC(=O)NC[C@H]1CN(c2ccc(N3CCOCC3)c(F)c2)C(=O)O1 [LZD, linezolid] | S (sensitive to LZD, at 2.0 μg/mL) | S (sensitive to LZD, at 2.0 μg/mL) | S (sensitive to LZD, at 2.0 μg/mL) | – | – | –
3 | CO[C@H]1/C=C/O[C@@]2(C)Oc3c(C)c(O)c4c(O)c(c(/C=N/N5CCN(C)CC5)c(O)c4c3C2=O)NC(=O)/C(C)=C\C=C\[C@H](C)[C@H](O)[C@@H](C)[C@@H](O)[C@@H](C)[C@H](OC(C)=O)[C@@H]1C [RIF, rifampicin] | R | R | R | – | – | –
4 | CSCC[C@H](NC(=O)N[C@@H](Cc1c[nH]c2ccccc12)C(=O)O)C(=O)N[C@H](C(=O)N/C=C1/C[C@@H](O)[C@H](n2ccc(=O)[nH]c2=O)O1)[C@H](C)N(C)C(=O)[C@@H](N)Cc1cccc(O)c1 [SS-A, sansanmycin A] | – | – | – | 16 µg/mL (≈ 18.5 µM) | 16 µg/mL (≈ 18.5 µM) | 16 µg/mL (≈ 18.5 µM)
5 | CSCC[C@H](NC(=O)N[C@@H](Cc1c[nH]c2ccccc12)C(=O)O)C(=O)N[C@H](C(=O)NC[C@H]1O[C@@H](n2ccc(=O)[nH]c2=O)C[C@@H]1O)[C@H](C)N(C)C(=O)[C@@H](N)Cc1cccc(O)c1 [SS-KK-1] | – | – | – | >64 µg/mL | >64 µg/mL | >64 µg/mL
6 | CSCC[C@H](NC(=O)N[C@@H](Cc1c[nH]c2ccccc12)C(=O)O)C(=O)N[C@H](C(=O)NC[C@H]1O[C@@H](n2ccc(=O)[nH]c2=O)C[C@@H]1O)[C@H](C)N(C)C(=O)[C@@H](N)Cc1ccc(O)cc1 [SS-KK-2] | – | – | – | 64 µg/mL (≈ 73.9 µM) | 64 µg/mL (≈ 73.9 µM) | 32 µg/mL (≈ 37 µM)
